Legend:
[1] = target: T1, EGFR exon 20 ASV insertion (V769_D770insASV) (Homo sapiens, UniProt P00533, INS769ASV); assay: Ba/F3-EGFR-Exon20-ASV cell anti-proliferation assay (MTS, CellTiter 96 AQueous One); type: cell-based; settings: Ba/F3-EGFR-Exon20-ASV cells, 72 h, MTS signal
T1 construct: expressed in transfected cells; host or cells: Ba/F3 (murine pro-B) cells, lentiviral transduction with pLVX-IRES puro
Excerpt: (§1) A compound's ability in selectively inhibiting EGFR exon 20 insertion mutations can be assessed using Ba/F3 cells, a murine pro-B cell line, which have been transduced with EGFR exon 20 insertions. An expression vector, pLVX-IRES puro (Clontech) coding for human EGFR exon 20 insertions NPG (H773_V774insNPG) or ASV (V769_D770insASV), was transfected into HEK293 cells by the Trans-Lentiviral ORF Packaging System (Thermo Scientific), to produce virus encoding EGFR exon 20 insertions. Ba/F3 (DSMZ) cells maintained in RPM11640 medium supplemented with 10% fetal bovine serum, 200 pM L-glutamine/200 µg/mL penicillin/200 µg/mL streptomycin (Life Technology) and 10 ng/mL IL-3 (R&D system), were infected by EGFR Exon20 virus and subsequently selected by puromycin (Life Technology) selection and IL-3 depletion. Ba/F3 cells expressing EGFR exon 20 insertions (named Ba/F3-EGFR-Exon20-NPG or Ba/F3-EGFR-Exon20-ASV) can proliferate in the absence of IL-3. The anti-proliferative activity of compounds were determined as follows: BaF3-EGFR-Exon20 cells (NPG or ASV) seeded in 96 well plates (2500 cells/well) were treated with test compound (dissolved in DMSO) at a series of concentrations (4-fold dilution, top concentration: 10,000 nM). The plates were incubated for 72 h in a 37° C. incubator with 5% CO2, and the number of viable cells in each well were measured indirectly by CellTiter 96® Aqueous One Solution Cell Proliferation Assay (Promega) This assay is a colorimetric method for determining the number of viable cells through measurement of their metabolic activity by detection of enzymatic conversion of tetrazolium salts into blue formazan derivatives. Reagent (20 pL) was added into each well, and the plates were returned to the incubator for 2 h. The absorbance in each well was then measured at 490 nm using an Envision plate reader (Perkin Elmer). IC50 values were calculated by determining the concentration of compound required to decrease the MTS signal by 50% comparing to the DMSO control in best-fit curves using Microsoft XLfit software or Accelrys Pipeline Pilot.

[2] = target: EGFR exon 20 NPG insertion (H773_V774insNPG) (Homo sapiens, UniProt P00533, cells depend on it, form not given); assay: Ba/F3-EGFR-Exon20-NPG cell anti-proliferation assay (MTS, CellTiter 96 AQueous One); type: cell-based; settings: 72 h, MTS signal
EGFR exon 20 NPG insertion (H773_V774insNPG), sequence (P00533 with tags, fused parts or gaps INS772GNP, form open): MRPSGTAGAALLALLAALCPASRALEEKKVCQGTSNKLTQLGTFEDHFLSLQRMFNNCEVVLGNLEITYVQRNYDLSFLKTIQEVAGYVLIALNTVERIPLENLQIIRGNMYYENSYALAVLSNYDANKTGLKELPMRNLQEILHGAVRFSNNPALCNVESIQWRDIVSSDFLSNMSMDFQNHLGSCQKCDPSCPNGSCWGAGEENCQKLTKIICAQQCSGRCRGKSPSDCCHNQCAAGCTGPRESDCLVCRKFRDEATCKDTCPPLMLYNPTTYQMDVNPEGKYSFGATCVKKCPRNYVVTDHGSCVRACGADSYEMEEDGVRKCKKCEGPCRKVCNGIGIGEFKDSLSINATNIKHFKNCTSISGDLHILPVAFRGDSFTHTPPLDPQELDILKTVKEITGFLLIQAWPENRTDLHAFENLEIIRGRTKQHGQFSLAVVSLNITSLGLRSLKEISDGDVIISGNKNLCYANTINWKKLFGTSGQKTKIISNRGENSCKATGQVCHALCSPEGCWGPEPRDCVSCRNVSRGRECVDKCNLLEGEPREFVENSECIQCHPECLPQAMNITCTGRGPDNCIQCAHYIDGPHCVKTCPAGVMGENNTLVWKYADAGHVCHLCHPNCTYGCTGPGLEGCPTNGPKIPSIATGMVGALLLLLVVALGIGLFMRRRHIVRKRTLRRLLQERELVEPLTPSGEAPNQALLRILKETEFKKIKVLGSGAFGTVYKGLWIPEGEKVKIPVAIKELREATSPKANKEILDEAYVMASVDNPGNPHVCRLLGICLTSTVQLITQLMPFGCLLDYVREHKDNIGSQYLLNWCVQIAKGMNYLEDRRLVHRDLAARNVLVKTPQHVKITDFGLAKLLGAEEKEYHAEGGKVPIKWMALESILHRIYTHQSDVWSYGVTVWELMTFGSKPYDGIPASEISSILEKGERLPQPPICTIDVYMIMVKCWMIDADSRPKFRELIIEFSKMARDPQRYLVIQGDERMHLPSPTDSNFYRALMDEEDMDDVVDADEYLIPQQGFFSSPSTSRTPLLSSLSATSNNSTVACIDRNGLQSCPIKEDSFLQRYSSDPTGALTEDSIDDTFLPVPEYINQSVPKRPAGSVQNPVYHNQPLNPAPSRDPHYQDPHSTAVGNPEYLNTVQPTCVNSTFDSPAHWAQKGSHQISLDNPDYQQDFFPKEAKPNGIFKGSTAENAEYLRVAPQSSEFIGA
Excerpt: as §1

T1 sequence (P00533 with tags, fused parts or gaps INS769ASV): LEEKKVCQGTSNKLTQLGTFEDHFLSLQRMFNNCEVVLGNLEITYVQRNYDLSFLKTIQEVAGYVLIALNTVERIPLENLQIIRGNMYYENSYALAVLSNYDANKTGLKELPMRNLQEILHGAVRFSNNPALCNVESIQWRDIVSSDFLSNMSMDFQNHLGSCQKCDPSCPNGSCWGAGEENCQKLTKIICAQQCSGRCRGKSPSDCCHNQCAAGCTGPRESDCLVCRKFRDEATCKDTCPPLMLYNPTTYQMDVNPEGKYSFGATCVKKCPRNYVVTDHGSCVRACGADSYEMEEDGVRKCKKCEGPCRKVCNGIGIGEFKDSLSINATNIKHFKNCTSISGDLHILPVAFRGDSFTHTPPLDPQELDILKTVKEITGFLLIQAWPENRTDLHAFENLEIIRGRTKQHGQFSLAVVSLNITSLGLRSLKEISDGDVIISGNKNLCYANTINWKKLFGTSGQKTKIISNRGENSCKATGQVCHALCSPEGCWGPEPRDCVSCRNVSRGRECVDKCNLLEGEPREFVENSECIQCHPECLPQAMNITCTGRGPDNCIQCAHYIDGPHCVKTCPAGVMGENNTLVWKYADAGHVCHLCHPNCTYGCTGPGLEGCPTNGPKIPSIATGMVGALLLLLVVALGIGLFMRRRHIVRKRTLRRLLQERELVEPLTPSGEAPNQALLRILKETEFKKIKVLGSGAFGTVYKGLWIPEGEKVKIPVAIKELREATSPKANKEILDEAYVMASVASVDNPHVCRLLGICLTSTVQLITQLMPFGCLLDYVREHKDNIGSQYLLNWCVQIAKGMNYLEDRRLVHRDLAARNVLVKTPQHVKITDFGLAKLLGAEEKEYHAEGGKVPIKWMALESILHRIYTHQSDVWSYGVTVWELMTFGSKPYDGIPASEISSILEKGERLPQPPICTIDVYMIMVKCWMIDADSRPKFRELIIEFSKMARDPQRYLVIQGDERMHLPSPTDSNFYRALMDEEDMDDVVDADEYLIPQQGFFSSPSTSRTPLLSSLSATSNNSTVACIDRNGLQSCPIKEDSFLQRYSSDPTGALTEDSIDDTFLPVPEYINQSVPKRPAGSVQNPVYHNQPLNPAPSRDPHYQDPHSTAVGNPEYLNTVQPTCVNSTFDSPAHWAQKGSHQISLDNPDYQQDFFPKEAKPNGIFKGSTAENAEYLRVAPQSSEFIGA

Row | Compound | IC50 [1] [nM] | IC50 [2] [nM]
1 | C=CC(=O)Nc1cc(Nc2nccc(-c3c4n(c5ccccc35)CCN(C)C4=O)n2)c(OC)cc1N(C)CCN(C)C [Example 2, N-(2-((2-(dimethylamino)ethyl)(methyl)amino)-4-methoxy-5-((4-(2-methyl-1-oxo-1,2,3,4-tetrahydropyrazino[1,2-a]indol-10-yl)pyrimidin-2-yl)amino)phenyl)acrylamide] | 100 to 500 | –
2 | C=CC(=O)Nc1cc(Nc2nccc(-c3c4n(c5ccccc35)CCCC4)n2)c(OC)cc1N(C)CCN(C)C [Example 5, N-(2-((2-(dimethylamino)ethyl)(methyl)amino)-4-methoxy-5-((4-(6,7,8,9-tetrahydropyrido[1,2-a]indol-10-yl)pyrimidin-2-yl)amino)phenyl)acrylamide] | < 100 | –
3 | C=CC(=O)Nc1cc(Nc2nccc(-c3c4n(c5ccccc35)CC(O)C(O)C4)n2)c(OC)cc1N(C)CCN(C)C (stereo not drawn) [Example 6, N-(5-((4-(cis-7,8-dihydroxy-6,7,8,9-tetrahydropyrido[1,2-a]indol-10-yl)pyrimidin-2-yl)amino)-2-((2-(dimethylamino)ethyl)(methyl)amino)-4-methoxyphenyl)acrylamide] | < 100 | –
4 | C=CC(=O)Nc1cc(Nc2nccc(-c3c4n(c5ccccc35)CC(OC)CC4)n2)c(OC)cc1N(C)CCN(C)C (stereo not shown) [Example 7, N-(2-((2-(dimethylamino)ethyl)(methyl)amino)-4-methoxy-5-((4-(7-methoxy-6,7,8,9-tetrahydropyrido[1,2-a]indol-10-yl)pyrimidin-2-yl)amino)phenyl)acrylamide] | < 100 | –
5 | C=CC(=O)Nc1cc(Nc2nccc(-n3c4c(c5ccccc53)CC(O)CC4)n2)c(OC)cc1N(C)CCN(C)C (stereo not shown) [Example 10, N-(2-((2-(dimethylamino)ethyl)(methyl)amino)-5-((4-(3-hydroxy-1,2,3,4-tetrahydro-9H-carbazol-9-yl)pyrimidin-2-yl)amino)-4-methoxyphenyl)acrylamide] | < 100 | –

More lines, now with the values ahead:

Row | IC50 [1] [nM] | IC50 [2] [nM] | Compound
6 | < 100 | < 100 | C=CC(=O)Nc1cc(Nc2nccc(-c3c4n(c5ccccc35)CCOC4)n2)c(OC)cc1N(C)CCN(C)C [Example 1, N-(5-((4-(3,4-dihydro-1H-[1,4]oxazino[4,3-a]indol-10-yl)pyrimidin-2-yl)amino)-2-((2-(dimethylamino)ethyl)(methyl)amino)-4-methoxyphenyl)acrylamide]
7 | < 100 | < 100 | C=CC(=O)Nc1cc(Nc2nccc(-c3c4n(c5ccccc35)CC(O)CC4)n2)c(OC)cc1N(C)CCN(C)C (stereo not shown) [Example 3, N-(2-((2-(dimethylamino)ethyl)(methyl)amino)-5-((4-(7-hydroxy-6,7,8,9-tetrahydropyrido[1,2-a]indol-10-yl)pyrimidin-2-yl)amino)-4-methoxyphenyl)acrylamide]
8 | < 100 | – | C=CC(=O)Nc1cc(Nc2nccc(-c3c4n(c5ccccc35)CC3OC(C)(C)OC3C4)n2)c(OC)cc1N(C)CCN(C)C (stereo not drawn) [Example 4, N-(5-((4-(cis-2,2-dimethyl-3a,4,11,11a-tetrahydro-[1,3]dioxolo[4′,5′:4,5]pyrido[1,2-a]indol-10-yl)pyrimidin-2-yl)amino)-2-((2-(dimethylamino)ethyl)(methyl)amino)-4-methoxyphenyl)acrylamide]

— patent publication US20210323976A1, “HETEROARYL COMPOUNDS FOR KINASE INHIBITION” (ARIAD Pharmaceuticals, Inc., priority 2015, published 2021)
